Results reported in article PMC9424909, “Rutin alleviated acrolein-induced cytotoxicity in Caco-2 and GES-1 cells by forming a cyclic hemiacetal product” (Frontiers in Nutrition, 2022).

Assay: elimination of ACR by rutin in PBS (DNPH derivatization, HPLC)
Conditions: for amount of ACR reduced compared with the initial content / content of ACR (residual) / content of residual ACR: 2 h; for content of ACR (residual): rutin/ACR 1/1, initial content 200 μmol
Procedure: In the present study, three variables were taken into consideration, namely temperature (40–100°C), reaction duration (0.5–8 h), and molar ratio of rutin to ACR (from 1/2 to 4/1), and the remaining level of ACR was determined. A mixture of rutin, ACR, and 20 mL of PBS was prepared in a 50 mL three-necked flask and reacted under light-proof conditions. The different variables were studied separately while keeping other conditions constant as follows: temperature of 80°C, reaction time of 2 h, and the molar ratio of rutin/ACR of 1/1. At the end of each reaction, ACR was derivatized with DNPH, and its content was determined as below.
The stock solution equivalent to ACR concentration of […] was prepared by dissolving 10.7 mg of ACR-DNPH standard with 25 mL of acetonitrile (ACN). And the ACR-DNPH standard curve (2 to 100 μg/mL) was established by serial dilutions of the stock solution. The HPLC conditions were as below. An Agilent 1,260 Infinity II HPLC system (Agilent Technologies, Palo Alto, CA) equipped with a DAD and a Zorbax SB-C18 column (250 × 4.6 mm; 5 μm; Agilent Technologies) was utilized for the determination of ACR-DNPH. The separation was conducted under isocratic conditions by introducing 50% A (water) and 50% B (ACN) at a flow rate of 1.0 mL/min for 15 min. The temperature was 35°C, the injection volume was 20 μL, and the detection wavelength was set at 365 nm. According to the retention time as well as the peak area, the standard curve of ACR-DNPH derivates was obtained.
DNPH was recrystallized as the followings before use: excess DNPH was added into 200 mL of methanol (MeOH) heating for 1 h, and the supernatant was collected and further heated at 60°C to remove 95% of the solvent; the crystals were then washed twice with 100 mL of MeOH, transferred to another clean beaker, and co-heated with 200 mL of MeOH; and the resulting crystal was stored under seal. The 0.1 M DNPH solution was prepared by dissolving 5.0548 g of the purified DNPH in 250 mL of ACN containing 5 mL of 10% phosphoric acid solution.
Derivatization of ACR with DNPH was conducted in accordance with Reilly et al. ([36]). In short, one milliliter of each sample was incubated with 1 mL of diluted DNPH solution (0.01 M) for 40 min at 40°C, followed by extraction with 10 mL of MeOH/water (75: 25, v/v). After centrifugation (6,000 rpm, 10 min), the supernatant was collected and was further extracted with 10 mL of dichloromethane to obtain the DNPH derivatives. Prior to HPLC analysis as above, the DNPH derivatives were re-dissolved in 1 mL of HPLC grade ACN and passed through a 0.45 μm filter (Bie & Berntsen, Rødovre, Denmark).

C[C@@H]1O[C@@H](OC[C@H]2O[C@@H](Oc3c(-c4ccc(O)c(O)c4)oc4cc(O)cc(O)c4c3=O)[C@H](O)[C@@H](O)[C@@H]2O)[C@H](O)[C@H](O)[C@H]1O [rutin, quercetin 3-O-rhamnosylglucoside]
amount of ACR reduced compared with the initial content (40°C, rutin/ACR 1/1): 43.36%
content of ACR (residual) (40°C): 113.28 µmol
amount of ACR reduced compared with the initial content (60°C, rutin/ACR 1/1): 82.05%
content of ACR (residual) (60°C): 35.9 µmol
amount of ACR reduced compared with the initial content (80°C, rutin/ACR 1/1): 92.56%
content of ACR (residual) (80°C): 14.88 µmol
amount of ACR reduced compared with the initial content (90°C, rutin/ACR 1/1): 96.09%
content of ACR (residual) (90°C): 7.83 µmol
amount of ACR reduced compared with the initial content (100°C, rutin/ACR 1/1): 98.20%
content of ACR (residual) (100°C): 3.60 µmol
ACR removed (after 8 h of reaction, 80°C, rutin/ACR 1/1): more than 94%
content of residual ACR (molar ratio rutin/ACR 1/2, 80°C): 18.54 µmol
content of residual ACR (molar ratio rutin/ACR 4/1, 80°C): 6.69 µmol
